Literature values in article PMC12689647, “Evaluation of bromadiolone combined with ciprofloxacin, vitamin D, aspirin, and cinnamon as an apoptosis-mediated rodenticide strategy” (Scientific Reports, 2025).

Columns and labels:
CYP1A = conditions: co-administration, many animal species; cited from earlier work
Albino rats = conditions: repeated doses (1 g/kg); cited from earlier work
G361 HMM cells = conditions: cited from earlier work

SMILES: O=C(O)c1cn(C2CC2)c2cc(N3CCNCC3)c(F)cc2c1=O [Ciprofloxacin]
- effect on CYP1A activity in hepatic microsomes (CYP1A): inhibits CYP1A activity

SMILES: CC(=O)Oc1ccccc1C(=O)O [acetylsalicylic acid, Acetylsalicylic acid]
- toxic effects of repeated doses (Albino rats): varying degrees of gastroenteritis, hepatitis, nephritis, pulmonary edema

SMILES: O=c1ccc2cc(O)c(O)cc2o1 [esculetin]
- effect on apoptotic signaling molecules (G361 HMM cells): activated apoptotic signaling molecules such as caspase-3 and PARP
